{
  "source": "paper PMC7897990",
  "about": "“TriTOX: A novel Trichomonas vaginalis assay platform for high-throughput screening of compound libraries” (International Journal for Parasitology: Drugs and Drug …, 2021)",
  "key": {"[1]": {"tested_on": "Trichomonas vaginalis G3 trophozoites", "conditions": "for T.vaginalis_Absorbance_Rep1: replicate 1, raw absorbance; for T.vaginalis_Absorbance_Rep2: replicate 2, raw absorbance"}, "[2]": {"tested_on": "nontumorigenic neonatal foreskin fibroblast (NFF) cell line"}, "[3]": {"conditions": "HTS, parasite screen at 1 µg/mL, replicate 1"}, "[4]": {"conditions": "HTS, parasite screen at 1 µg/mL"}, "[5]": {"conditions": "HTS, parasite screen at 1 µg/mL, replicate 2"}, "[6]": {"conditions": "parasite screen at 1 µg/mL, replicate 1"}, "[7]": {"conditions": "parasite screen at 1 µg/mL, replicate 2"}, "[8]": {"conditions": "NFF_NS1 screen at 5 µg/mL, NFF cells"}, "[9]": {"conditions": "HTS single concentration, parasite screen 1 µg/mL, replicate 1"}, "[10]": {"conditions": "HTS single concentration, parasite screen 1 µg/mL, replicate 2"}, "[11]": {"conditions": "NFF_NS1 screen 5 µg/mL, single concentration"}, "[12]": {"conditions": "HTS replicate 1, parasite screen 1 µg/mL"}, "[13]": {"conditions": "HTS replicate 2, parasite screen 1 µg/mL"}, "[14]": {"conditions": "NFF fibroblasts, single concentration 5 µg/mL"}},
  "note": "Like-named read-outs stand apart in the source and are kept apart here. Non-standard residues stand in square brackets, D forms with d. Residues, ends and D or L forms follow the SMILES beside them. Aoe = N[C@@H](CCCCCC(=O)[C@@H]1CO1)C(=O)O; GABA = NCCCC(=O)O",
  "data": [
    {"compound": "COC12c3c(C)cc(O)c4c(=O)occ(c34)C(=O)C1C13COC(=O)c4c(O)cc(C)c(c41)C(=O)C2C3OC(C)=O", "note": "(stereo not drawn) [Duclauxin]", "values": [
      {"measurement": "T.vaginalis_%inb_Rep1", "setting": "[1]; [3]", "value": 14.59, "unit": "%"},
      {"measurement": "T.vaginalis_Absorbance_Rep1", "setting": "[1]; [4]", "value": 0.98},
      {"measurement": "T.vaginalis_%inb_Rep2", "setting": "[1]; [5]", "value": 17.79, "unit": "%"},
      {"measurement": "T.vaginalis_Absorbance_Rep2", "setting": "[1]; [4]", "value": 0.866},
      {"measurement": "NFF_Activity", "setting": "[2]; NFF_NS1 screen at 5 µg/mL", "value": "I (otherwise these were reported as inactive (I))"}
    ]},
    {"compound": "CC(=O)OC[C@]12C[C@H](OC(=O)CC(C)C)C(C)=C[C@H]1O[C@@H]1[C@H](O)[C@@H](OC(C)=O)[C@@]2(C)[C@]12CO2", "note": "[BIA-T1933]", "values": [
      {"measurement": "T.vaginalis_%inb_Rep1", "setting": "[1]; [6]", "value": 5.61, "unit": "%"},
      {"measurement": "T.vaginalis_%inb_Rep2", "setting": "[1]; [7]", "value": 2.80, "unit": "%"},
      {"measurement": "NFF_Activity", "setting": "[2]; [8]", "value": "I (otherwise these were reported as inactive (I))"}
    ]},
    {"compound": "C=C1C(=O)OC2C(=O)OC(CCCCCCCC)C12", "note": "(stereo not drawn) [BIA-A1409]", "values": [
      {"measurement": "T.vaginalis_%inb_Rep1", "setting": "[1]; [9]", "value": 15.19, "unit": "%"},
      {"measurement": "T.vaginalis_%inb_Rep2", "setting": "[1]; [10]", "value": 12.94, "unit": "%"},
      {"measurement": "NFF_Activity", "setting": "[2]; [11]", "value": "A (active (A) compounds having >25% inhibitory activity)"}
    ]},
    {"compound": "CC1=C[C@H]2C(=O)O[C@H]3C[C@@H](C/C=C(\\C)C[C@@H](C)/C=C/C=C4\\CO[C@H]([C@@H]1O)[C@@]42O)O[C@]1(C3)C[C@H](O)[C@H](C)[C@@H](/C(C)=C/C(C)C)O1", "note": "[Nemadectin]", "values": [
      {"measurement": "T.vaginalis_%inb_Rep1", "setting": "[1]; [12]", "value": 11.56, "unit": "%"},
      {"measurement": "T.vaginalis_%inb_Rep2", "setting": "[1]; [13]", "value": 13.53, "unit": "%"},
      {"measurement": "NFF_Activity", "setting": "[2]; [14]", "value": "I (otherwise these were reported as inactive (I))"}
    ]},
    {"compound": "CN(C)[C@@H]1C(=O)C(C(N)=O)=C(O)[C@@]2(O)C(=O)C3=C(O)c4c(O)cccc4C[C@H]3C[C@@H]12.Cl", "note": "[BIA-S1534]", "values": [
      {"measurement": "T.vaginalis_%inb_Rep1", "setting": "[1]; [6]", "value": 5.02, "unit": "%"},
      {"measurement": "T.vaginalis_%inb_Rep2", "setting": "[1]; [7]", "value": 3.66, "unit": "%"},
      {"measurement": "NFF_Activity", "setting": "[2]; [8]", "value": "I (otherwise these were reported as inactive (I))"}
    ]},
    {"compound": "O=C1C=CC(=O)c2c(O)cccc21", "note": "[BIA-J1739]", "values": [
      {"measurement": "T.vaginalis_%inb_Rep1", "setting": "[1]; replicate 1, parasite screen at 1 µg/mL", "value": 12.73, "unit": "%"},
      {"measurement": "T.vaginalis_%inb_Rep2", "setting": "[1]; replicate 2, parasite screen at 1 µg/mL", "value": 10.78, "unit": "%"},
      {"measurement": "NFF_Activity", "setting": "[2]; NFF cells, screen at 5 µg/mL", "value": "A (active (A) compounds having >25% inhibitory activity)"}
    ]},
    {"compound": "COC1=CC(C)=CC(C)C(O)C(C)CC(C)=CC=CC(OC)C(C(C)C(O)C(C)C2(O)CC(O)C(C)C(C(C)C)O2)OC1=O", "note": "(stereo not drawn) [BIA-B1012]", "values": [
      {"measurement": "T.vaginalis_%inb_Rep1", "setting": "[1]; [9]", "value": 15.99, "unit": "%"},
      {"measurement": "T.vaginalis_%inb_Rep2", "setting": "[1]; [10]", "value": 16.70, "unit": "%"},
      {"measurement": "NFF_Activity", "setting": "[2]; [11]", "value": "I (otherwise these were reported as inactive (I))"}
    ]},
    {"compound": "C/C=C/[C@@H]1C=C[C@@H]2C[C@H](C)CC[C@H]2[C@]1(C)/C(O)=C1/C(=O)[C@H](CO)N(C)C1=O", "note": "[Equisetin]", "values": [
      {"measurement": "T.vaginalis_%inb_Rep1", "setting": "[1]; [3]", "value": 12.17, "unit": "%"},
      {"measurement": "T.vaginalis_Absorbance_Rep1", "setting": "[1]; [4]", "value": 0.942},
      {"measurement": "T.vaginalis_%inb_Rep2", "setting": "[1]; [5]", "value": 15.65, "unit": "%"},
      {"measurement": "T.vaginalis_Absorbance_Rep2", "setting": "[1]; [4]", "value": 0.879},
      {"measurement": "NFF_Activity", "setting": "[2]; NFF_NS1 screen at 5 µg/mL", "value": "I (otherwise these were reported as inactive (I))"}
    ]},
    {"compound": "CC(C)[C@H]1NC(=O)[C@H](Cc2ccccc2)NC(=O)[C@@H](C(C)C)NC(=O)[C@@H](C)NC(=O)CCCNC(=O)[C@@H](Cc2c[nH]c3ccccc23)NC(=O)[C@@H](C)NC1=O", "note": "[Unguisin A] (cyclo(F[dV][dA][dW][GABA][dA][dV]))", "values": [
      {"measurement": "T.vaginalis_%inb_Rep1", "setting": "[1]; [3]", "value": 9.07, "unit": "%"},
      {"measurement": "T.vaginalis_%inb_Rep2", "setting": "[1]; [5]", "value": 14.50, "unit": "%"},
      {"measurement": "NFF_Activity", "setting": "[2]; NFF fibroblast screen at 5 µg/mL, A = active, I = inactive", "value": "I (otherwise these were reported as inactive (I))"}
    ]},
    {"compound": "C[C@@H]1NC(=O)[C@H](CCCCCC(=O)[C@@H]2CO2)NC(=O)[C@H]2CCCN2C(=O)[C@H](Cc2ccccc2)NC1=O", "note": "[BIA-A1402] (cyclo(AF[dP][Aoe]))", "values": [
      {"measurement": "T.vaginalis_%inb_Rep1", "setting": "[1]; [9]", "value": 64.03, "unit": "%"},
      {"measurement": "T.vaginalis_%inb_Rep2", "setting": "[1]; [10]", "value": 94.29, "unit": "%"},
      {"measurement": "NFF_Activity", "setting": "[2]; [11]", "value": "I (otherwise these were reported as inactive (I))"}
    ]},
    {"compound": "Fulvic acid", "values": [
      {"measurement": "T.vaginalis_%inb_Rep1", "setting": "[1]; [3]", "value": 12.65, "unit": "%"},
      {"measurement": "T.vaginalis_Absorbance_Rep1", "setting": "[1]; [4]", "value": 0.944},
      {"measurement": "T.vaginalis_%inb_Rep2", "setting": "[1]; [5]", "value": 4.34, "unit": "%"},
      {"measurement": "T.vaginalis_Absorbance_Rep2", "setting": "[1]; [4]", "value": 0.68},
      {"measurement": "NFF_Activity", "setting": "[2]; NFF_NS1 screen at 5 µg/mL", "value": "I (otherwise these were reported as inactive (I))"}
    ]},
    {"compound": "COc1ccc(C[C@H]2NC[C@H](O)[C@H]2OC(C)=O)cc1", "note": "[BIA-A1215]", "values": [
      {"measurement": "T.vaginalis_%inb_Rep1", "setting": "[1]; [9]", "value": 63.76, "unit": "%"},
      {"measurement": "T.vaginalis_%inb_Rep2", "setting": "[1]; [10]", "value": 97.54, "unit": "%"},
      {"measurement": "NFF_Activity", "setting": "[2]; [11]", "value": "I (otherwise these were reported as inactive (I))"}
    ]},
    {"compound": "CC(C)=CCC[C@H](C)[C@@]1(O)CC[C@]2(C)C[C@H]3[C@H](C(=O)C[C@@]3(C)O)/C(C=O)=C\\C[C@H]21", "note": "[Ophiobolin B]", "values": [
      {"measurement": "T.vaginalis_%inb_Rep1", "setting": "[1]; [12]", "value": 11.82, "unit": "%"},
      {"measurement": "T.vaginalis_%inb_Rep2", "setting": "[1]; [13]", "value": 13.09, "unit": "%"},
      {"measurement": "NFF_Activity", "setting": "[2]; [14]", "value": "A (active (A) compounds having >25% inhibitory activity)"}
    ]},
    {"compound": "O=C1NCc2nc3ccccc3c(=O)n2-c2ccccc21", "note": "[BIA-S1678]", "values": [
      {"measurement": "T.vaginalis_%inb_Rep1", "setting": "[1]; [6]", "value": 10.85, "unit": "%"},
      {"measurement": "T.vaginalis_%inb_Rep2", "setting": "[1]; [7]", "value": 12.61, "unit": "%"},
      {"measurement": "NFF_Activity", "setting": "[2]; [8]", "value": "I (otherwise these were reported as inactive (I))"}
    ]}
  ]
}
